Experimental data published in patent US20220162610A1, “NOVEL RNA TRANSCRIPT” (PTC Therapeutics, Inc., priority 2020, published 2022).

Legend:
[1] = tested on: HTT pre-mRNA; experiment: Ampliseq/RNAseq analysis of intron 49 pseudoexon inclusion and HTT expression in different cell types; format: cell-based, human; conditions: for inclusion of intron 49 pseudoexon: HD fibroblasts, SH-SY5Y, TK6, MRC-5 cells
[2] = molecular target: T1, MDR1 (Homo sapiens, UniProt P08183); experiment: MDCK-MDR1 efflux assay; format: in vitro ADME; conditions: 10 μM, MDCK-MDR1 and MDCK-WT monolayers, 1 hour
T1 construct: host or cells: MDCK (Madin-Darby Canine Kidney) cells expressing MDR1
Protocol: The MDR1 efflux assay was conducted at Absorption System LLC (Exton, Pa.). Briefly, MDCK-MDR1 and MDCK-WT cell monolayers were grown to confluence on collagen-coated, microporous membranes in 12-well assay plates (Thermofisher). Compound solutions (10 μM) in permeability assay buffer (Hanks' balanced salt solution (HBSS), 10 mM HEPES, 15 mM glucose; pH of 7.4) were placed in the donor chamber. The receiver chamber was filled with assay buffer plus 1% BSA. Cell monolayers were dosed on the apical side (A-to-B) or basolateral side (B-to-A) and incubated at 37° C. (5% CO2, 100% relative humidity). Sampling from the donor chambers was performed at 0 and 1 hour; and from the receiver chambers at 1 hour. Each determination was performed in duplicate. The flux of lucifer yellow was also measured post-experimentally for each monolayer to ensure no damage was inflicted to the cell monolayers during the flux period. All samples were assayed by LC-MS/MS using electrospray ionisation. The apparent permeability (Papp) and percent recovery was determined using the following equation: […]
dCr/dt represents the slope of the cumulative receiver concentration versus time in μM/s; Vr is the volume of the receiver compartment (cm3); Vd is the volume of the donor compartment in (cm3); A is the area of the insert (1.13 cm2 for 12-well); C0 is the average measured concentration of the donor chamber at time zero in μM; Net Efflux ratio (ER) is defined as […].

[3] = Unbound brain partition coefficient (Kp,uu) from mouse PK studies; format: in vivo; conditions: FVB (WT littermates of the BACHD colony), brain and plasma (unbound), oral, 10 mg/kg, average over animals of multiple mouse PK studies
Protocol: Oral pharmacokinetics (PK) of compounds was evaluated in WT littermates from the BACHD colony (FVB background). Mice were treated with test compounds (10 mg/kg) by oral gavage in 0.5% hydroxypropylmethyl cellulose (HPMC) with 0.1% Tween 80. Blood was collected by terminal cardiac puncture at specified time points (3 mice per time point) and centrifuged to generate plasma. Brain tissue was collected at the time of blood collection and homogenized in water. Protein was precipitated from plasma and brain homogenates with acetonitrile, methanol mixture (5:1, v:v) containing an internal standard that is a close analog of the test compounds. The mixture was filtered through an EMD Millipore MultiScreen™ Solvinert Filter Plate (MSRLN04, Millipore, Burlington, Mass.). Calibration standards were prepared in the same matrix and processed with the testing samples. Filtrates were analysed using Acquity ultra performance liquid chromatography (UPLC) system (Waters Corporation) tandem with Xevo TQ-s Spectrometer (Waters Corporation). Samples were injected on to a Waters UPLC Acquity BEH C18 Column (2.1*50 mm, 1.7 μm) maintained at 50° C. The injection volume was 3 μL and the mobile phase flow rate was 0.45 mL/min. The mobile phase consisted of 2 solvents: A) 0.1% formic acid in water and B) 0.1% formic acid in acetonitrile. The initial mobile phase started with 5% solvent B for 0.4 min, which was changed to […] over 0.8 min with linear gradients and then maintained at 95% solvent B for another 0.4 min. The drug concentrations were acquired and processed with MassLynx 4.1 software. PK parameters were estimated using the non-compartment method within Phoenix® WinNonlin® Build 8.1 (Certara USA, Inc., Princeton, N.J.).
The unbound brain partition coefficient (Kp,uu) is defined as the ratio between unbound brain free drug concentration and unbound plasma concentration. It was calculated using the following equation:
Kp,uu=Cbrain×fu,b/(Cplasma*fu,p)
Cbrain and Cplasma represent the compound concentrations in brain and plasma, respectively. fu,b and fu,p are the unbound fraction of each testing article in brain and plasma, respectively. Both fu,b and fu,p were determined in vitro using Pierce Rapid Equilibrium Dialysis (RED) device at Absorption System LLC (Exton, Pa.). Kp,uu was calculated individually for each animal from multiple mouse PK studies and the average values are reported here.

T1 sequence (P08183 whole entry): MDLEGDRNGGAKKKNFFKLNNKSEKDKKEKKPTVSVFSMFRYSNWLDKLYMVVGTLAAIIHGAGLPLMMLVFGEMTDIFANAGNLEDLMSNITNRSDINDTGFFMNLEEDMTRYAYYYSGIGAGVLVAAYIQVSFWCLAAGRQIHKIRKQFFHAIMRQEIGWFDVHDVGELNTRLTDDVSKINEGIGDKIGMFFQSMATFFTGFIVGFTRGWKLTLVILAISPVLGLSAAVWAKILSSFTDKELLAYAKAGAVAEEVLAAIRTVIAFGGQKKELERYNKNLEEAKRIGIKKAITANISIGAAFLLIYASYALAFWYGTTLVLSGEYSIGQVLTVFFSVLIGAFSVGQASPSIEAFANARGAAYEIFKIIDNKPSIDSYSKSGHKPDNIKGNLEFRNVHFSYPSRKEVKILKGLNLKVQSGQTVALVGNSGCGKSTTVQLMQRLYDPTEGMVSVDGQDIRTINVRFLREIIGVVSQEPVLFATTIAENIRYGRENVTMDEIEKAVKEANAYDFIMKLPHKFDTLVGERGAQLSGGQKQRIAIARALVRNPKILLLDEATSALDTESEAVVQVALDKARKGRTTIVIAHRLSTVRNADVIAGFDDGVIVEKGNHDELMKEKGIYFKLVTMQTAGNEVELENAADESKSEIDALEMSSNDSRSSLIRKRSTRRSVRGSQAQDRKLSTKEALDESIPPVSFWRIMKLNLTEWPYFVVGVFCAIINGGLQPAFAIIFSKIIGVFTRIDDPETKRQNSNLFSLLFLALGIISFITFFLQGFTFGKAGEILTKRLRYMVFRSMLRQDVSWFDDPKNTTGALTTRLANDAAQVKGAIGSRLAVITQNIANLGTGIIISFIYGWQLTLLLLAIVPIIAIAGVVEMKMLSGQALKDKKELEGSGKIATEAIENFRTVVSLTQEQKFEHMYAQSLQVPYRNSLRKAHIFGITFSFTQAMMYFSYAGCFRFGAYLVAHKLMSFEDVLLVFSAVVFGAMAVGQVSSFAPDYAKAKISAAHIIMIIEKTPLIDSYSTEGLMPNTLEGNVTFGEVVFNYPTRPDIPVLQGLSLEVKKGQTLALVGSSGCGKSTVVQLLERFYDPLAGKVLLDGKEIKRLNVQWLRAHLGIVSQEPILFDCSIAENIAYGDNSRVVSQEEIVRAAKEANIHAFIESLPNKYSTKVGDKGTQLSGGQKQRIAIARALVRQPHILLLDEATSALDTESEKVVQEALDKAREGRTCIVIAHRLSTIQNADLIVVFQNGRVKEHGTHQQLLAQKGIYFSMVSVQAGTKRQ

SMILES	inclusion of intron 49 pseudoexon [1]	NET MDR1 ER [2]	Kp uu [3]	HTT gene expression quantified using RNAseq (FPKM) ([1]; 100 nM, SHSY5Y cells (HTT-C2), TK6 cells (HTT-C3))
CC1(C)CC(Oc2ccc(-c3ccc(-c4ccnc(O)c4)cc3O)nn2)CC(C)(C)N1 [HTT-C1]	induced the inclusion of an Intron 49 pseudoexon	>62.7	0.084	
CC1(C)CC(Oc2ccc(-c3ccc(-c4cn[nH]c4)cc3O)nn2)CC(C)(C)N1 [HTT-C2]	induced the inclusion of an Intron 49 pseudoexon		0.179	reduced HTT gene expression
CCN1CCC(c2cc(C)c3nc(-c4ccc5nn(C)cc5c4)cc(=O)n3c2)CC1 [HTT-D1]		11.8	0.242	
CCN1CCC(c2cc3c(F)cc(-c4cc(C)c5nc(C)cn5n4)cc3nn2)CC1 [HTT-D3]	induced the inclusion of an Intron 49 pseudoexon	7.10	0.472	
